Measured values reported in ChEMBL document CHEMBL1201862, “PubChem BioAssay data set” (2004).
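Test compounds were applied to cells in 96-well plates for 48 hours at 5 doses. GI50: concentration for 50% inhibition of growth.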 Active and inactive are the calls of the source. No stated cut-off is given here; in the data, active = GI50 up to about 1.1 µM and inactive = higher.

Legend:
Test in all cases: NCI anticancer screen, dose series, 48 h
DLD-1 = test system: DLD-1
XF498 = test system: XF498
RXF 631 = test system: RXF 631
DMS-273 = test system: DMS-273
SNB-78 = test system: SNB-78
LXFL 529 = test system: LXFL 529
DMS-114 = test system: DMS-114
HOP-18 = test system: HOP-18

Measured: GI50

CC(C)(c1ccccc1)c1ccc(Oc2ccc3c(c2)-c2nc-3nc3[nH]c(nc4nc(nc5[nH]c(n2)c2ccc(Oc6ccc(C(C)(C)c7ccccc7)cc6)cc52)-c2cc(Oc5ccc(C(C)(C)c6ccccc6)cc5)ccc2-4)c2ccc(Oc4ccc(C(C)(C)c5ccccc5)cc4)cc32)cc1
inactive: DLD-1 > 100 µM | XF498 78 µM | RXF 631 > 100 µM | DMS-273 > 100 µM | SNB-78 > 100 µM | LXFL 529 > 100 µM

CN(C)CCONC(=O)C12CC3CC(CC(C3)C1)C2
inactive: DLD-1 > 100 µM | XF498 > 100 µM | DMS-114 > 100 µM | RXF 631 > 100 µM | SNB-78 26.2 µM | LXFL 529 > 100 µM

CCc1cccc(C(C)CC)c1/N=C(/NC(=O)c1ccccc1C(=O)N/C(=N/c1c(CC)cccc1C(C)CC)SC)SC (stereo not given)
inactive: DLD-1 58.5 µM | XF498 48.4 µM | RXF 631 51.2 µM | SNB-78 21.5 µM | LXFL 529 39.9 µM | HOP-18 26.8 µM

Cc1ccc(S(=O)(=O)N/N=C/c2oc(-c3ccncc3)c(-c3ccncc3)c2[N+](=O)[O-])cc1
inactive: DLD-1 > 100 µM | XF498 > 100 µM | RXF 631 > 100 µM | DMS-273 > 100 µM | SNB-78 > 100 µM | LXFL 529 > 100 µM | HOP-18 > 100 µM

Clc1ccc(OCc2nnc3n2N=C(c2ccc(Br)cc2)CS3)cc1
inactive: DLD-1 > 10 µM | XF498 4.24 µM | DMS-114 13.1 µM | RXF 631 > 10 µM | DMS-273 29.8 µM | SNB-78 21.5 µM | LXFL 529 15.2 µM

COC(=O)CCC(NC(=S)N/N=C(\C)c1ccccn1)C(=O)OC (stereo not given)
inactive: DLD-1 43 µM | XF498 > 100 µM | DMS-114 20.6 µM | RXF 631 34.1 µM | LXFL 529 40.4 µM | HOP-18 41.4 µM

C=CCO[C@H]1CC[C@@]2(C)C(CC[C@]3(C)C2CC=C2[C@@H]4[C@@H](C)C(C)CC[C@]4(C(=O)O)CCC23C)C1(C)C (stereo not given in full)
inactive: DLD-1 17.3 µM | XF498 7.1 µM | DMS-114 16.7 µM | RXF 631 13.7 µM | SNB-78 17.6 µM | LXFL 529 12.6 µM | HOP-18 22 µM
